Experimental data: the supplement of paper PMC10307832

Tests used:
Experiment in all cases: relative viability (nuclei count vs DMSO), 5 days (fraction); higher = more cells survive
Vismodegib = compound: CS(=O)(=O)c1ccc(C(=O)Nc2ccc(Cl)c(-c3ccccn3)c2)c(Cl)c1 [Vismodegib]
Procedure, shortened: (§1)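 In 1536-well plates, lung cancer cell lines rested overnight at 37 °C before five library-drug doses (not always all listed), √10 apart, were pinned onto vehicle-anchored plates. Nuclei were counted with MetaXpress from 4× Hoechst images taken after 5 days without medium change. Viability compares treated-well with vehicle-well nuclei as a median over plates, and plates needed control CV below 25% plus at least one doubling to pass.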

VE-821 = compound: CS(=O)(=O)c1ccc(-c2cnc(N)c(C(=O)Nc3ccccc3)n2)cc1 [VE-821]
Procedure, shortened: as §1

Ruxolitinib = compound: N#CC[C@H](C1CCCC1)n1cc(-c2ncnc3[nH]ccc23)cn1 [Ruxolitinib]
Procedure, shortened: as §1

VE-821 + Foretinib = compound: CS(=O)(=O)c1ccc(-c2cnc(N)c(C(=O)Nc3ccccc3)n2)cc1 [VE-821] + COc1cc2c(Oc3ccc(NC(=O)C4(C(=O)Nc5ccc(F)cc5)CC4)cc3F)ccnc2cc1OCCCN1CCOCC1 [Foretinib] (partner 0.25 µM)
Procedure, shortened: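 After 5 days of treatment, lung cancer cells in 1536-well plates were fixed and stained in a single step (final 0.05% Triton X-100, 1% formaldehyde, 1 ug/ml Hoechst) and their nuclei counted on 4× images. Treatment had been applied by pin tool the day after seeding as one drug alone or as a fixed anchor-drug dose with five library-drug doses (not always all listed) in √10 steps. Relative viability is the nuclei count of treated wells divided by that of vehicle wells, and values are medians of duplicate plates.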

| Cell Line | relative viability (Vismodegib; 0.08 µM) | relative viability (Vismodegib; 0.253 µM) | relative viability (Vismodegib; 0.8 µM) | relative viability (Vismodegib; 2.53 µM) | relative viability (Vismodegib; 8 µM) | relative viability (VE-821; 0.08 µM) | relative viability (VE-821; 0.253 µM) | relative viability (VE-821; 0.8 µM) | relative viability (VE-821; 2.53 µM) | relative viability (VE-821; 8 µM) | relative viability (Ruxolitinib; 0.08 µM) | relative viability (Ruxolitinib; 0.253 µM) | relative viability (Ruxolitinib; 0.8 µM) | relative viability (Ruxolitinib; 2.53 µM) | relative viability (Ruxolitinib; 8 µM) | relative viability (VE-821 + Foretinib; first compound 0.08 µM) | relative viability (VE-821 + Foretinib; first compound 0.253 µM) | relative viability (VE-821 + Foretinib; first compound 0.8 µM) | relative viability (VE-821 + Foretinib; first compound 2.53 µM) | relative viability (VE-821 + Foretinib; first compound 8 µM) |
| --- | --- | --- | --- | --- | --- | --- | --- | --- | --- | --- | --- | --- | --- | --- | --- | --- | --- | --- | --- | --- |
| A549 | 0.964 | 0.91 | 0.936 | 0.915 | 0.971 | 1.11 | 0.939 | 0.927 | 0.954 | 0.738 | 0.934 | 0.965 | 1.11 | 0.941 | 0.736 | 0.996 | 0.93 | 0.858 | 0.861 | 0.713 |
| NCI-H2342 | 0.882 | 1.07 | 0.984 | 0.742 | 0.931 | 1 | 0.957 | 0.939 | 0.998 | 0.807 | 0.981 | 0.827 | 1.09 | 1.02 | 0.964 | 1.25 | 0.917 | 0.951 | 1.1 | 1 |
| NCI-H1623 | 0.943 | 1.01 | 1.06 | 0.978 | 1.01 | 1.06 | 0.987 | 0.84 | 1.01 | 0.809 | 0.942 | 0.936 | 1.14 | 1.14 | 1.28 | 0.936 | 0.816 | 0.741 | 0.867 | 0.73 |
| NCI-H520 | 0.922 | 0.885 | 0.927 | 0.875 | 1.11 | 1.05 | 0.992 | 0.723 | 1.06 | 0.67 | 1.07 | 0.749 | 1.2 | 0.934 | 0.951 | 0.853 | 0.727 | 0.454 | 1.45 | 0.762 |
| NCI-H2405 | 0.96 | 1.06 | 0.927 | 0.991 | 1.03 | 1.06 | 0.968 | 0.968 | 1.09 | 0.993 | 0.715 | 0.974 | 0.999 | 0.938 | 0.52 | 1.09 | 1.06 | 0.993 | 1.09 | 1.12 |
| PC-3 [JPC-3] | 0.977 | 0.999 | 0.986 | 1.02 | 0.986 | 1.03 | 1.07 | 1.07 | 1.06 | 0.971 | 0.818 | 0.941 | 1.02 | 1.03 | 0.908 | 1.12 | 0.947 | 1.07 | 1.06 | 0.976 |
| EBC-1 | 0.931 | 0.965 | 1.12 | 0.963 | 1.06 | 1.07 | 0.894 | 0.865 | 1.05 | 0.759 | 0.981 | 1.04 | 1.1 | 0.924 | 0.822 | 0.0973 | 0.103 | 0.0999 | 0.104 | 0.102 |
| NCI-H2347 | 0.908 | 0.995 | 0.949 | 0.968 | 1.04 | 1.1 | 0.968 | 1.01 | 1.22 | 1.14 | 0.949 | 0.984 | 1.11 | 1.01 | 0.942 | 0.542 | 0.995 | 0.633 | 1.03 | 0.946 |
| LXF-289 | 1.02 | 0.989 | 1.03 | 0.988 | 0.902 | 1.06 | 1.1 | 1.09 | 1.06 | 1.14 | 0.965 | 0.996 | 0.938 | 0.944 | 0.919 | 1.02 | 0.991 | 0.98 | 1.04 | 1.07 |
| HCC-78 | 0.82 | 0.914 | 0.875 | 0.902 | 0.865 | 1.1 | 0.863 | 0.887 | 1.04 | 0.756 | 0.831 | 0.717 | 0.869 | 0.853 | 0.743 | 0.577 | 0.524 | 0.539 | 0.628 | 0.569 |
| HCC-366 | 0.997 | 1.04 | 0.998 | 0.984 | 1 | 1.06 | 1.01 | 0.85 | 0.925 | 0.191 | 1.07 | 0.984 | 1.05 | 1.03 | 0.932 | 0.942 | 0.922 | 0.815 | 0.271 | 0.153 |
| NCI-H2023 | 0.925 | 0.892 | 0.95 | 1.06 | 0.98 | 1.1 | 0.874 | 0.672 | 0.494 | 0.172 | 1.03 | 0.835 | 1.18 | 0.9 | 0.988 | 0.998 | 0.785 | 0.511 | 0.383 | 0.343 |
| NCI-H1734 | 0.966 | 0.954 | 0.951 | 0.993 | 0.961 | 1.07 | 0.989 | 0.964 | 1.03 | 0.656 | 0.962 | 0.914 | 1.15 | 0.879 | 0.942 | 0.972 | 0.854 | 0.805 | 1.02 | 0.722 |
| SK-LU-1 | 1 | 0.997 | 1.07 | 0.943 | 1.04 | 1.08 | 1.06 | 0.942 | 0.841 | 0.569 | 1.01 | 1.08 | 1.12 | 0.966 | 0.907 | 0.871 | 0.775 | 0.738 | 0.59 | 0.254 |
| NCI-H522 | 0.973 | 0.876 | 0.957 | 1 | 1.01 | 0.974 | 0.938 | 0.934 | 1.06 | 0.849 | 1.01 | 0.95 | 1.01 | 0.895 | 0.874 | – | – | – | – | – |
| NCI-H1792 | 0.854 | 0.877 | 0.941 | 0.928 | 0.922 | 1.26 | 0.817 | 0.842 | 1.37 | 0.824 | 0.871 | 0.761 | 0.856 | 0.822 | 0.561 | – | – | – | – | – |
| NCI-H1648 | 1 | 0.893 | 0.766 | 0.987 | 0.74 | 1.21 | 0.787 | 0.876 | 0.946 | 0.674 | 0.644 | 1.02 | 1.11 | 1.25 | 1.49 | – | – | – | – | – |
